Test system: ADCCR1 cells
Experiment: ADCC assay (specific lysis by NK92-CD16V effector cells) on ADCC-resistant cells
Assay type: cell-based, human
Conditions: ADCCR1 pretreated with inhibitor 0.01 to 10 μmol/L for 2 hours; ADCC assay at 4 hours; FIG. 4B, 4C
Text: Inhibitors of histone acetyltransferase C646 (cat. no. S7152), DNA methyltransferase azacytidine (cat. no. S1782), histone demethylase GSK J4 HCL (cat. no. S7070), and HDAC panobinostat (cat. no. S1030) were purchased from Selleck Chemicals. Inhibitors were solubilized in DMSO at […]. Vehicle treatment (DMSO) was used at the highest equivalent v/v used in inhibitor treatments.
ADCC assays were preformed using A431/ADCCS1/ADCCR1 as target cells and NK92-CD16V cells as the effector cells. Target cells are plated at 10,000 cells/well overnight (A431 cells double overnight).

Q: How did the “ADCC resistance / resensitization to ADCC (specific lysis)” value turn out when CC1=NN(c2ccc(C(=O)O)cc2)C(=O)/C1=C\c1ccc(-c2cc(C)c(C)cc2[N+](=O)[O-])o1 [C646] was run?
A: Its value is “partially reversed”.

Source: patent US20200319163A1, “METHODS AND COMPOSITIONS OVERCOMING CANCER CELL IMMUNE RESISTANCE” (Georgetown University, priority 2019, published 2020)
